Experiments:
HEK293-CCK2i4svR cells = test: Radioligand uptake and internalization in HEK293-CCK2i4svR cells; assay type: cell-based, human
Description: A day before the experiment, HEK293-CCK2i4svR cells were seeded in six-well plates. The next day, cells were rinsed with ice-cold internalization medium (IM: DMEM Glutamax-I, supplemented by 1% (v/v) FBS) and then the fresh medium was added (1.2 mL) at 37 °C. A further portion of IM (150 µL) was added in the upper well-row, and DG2 solution in IM (150 µL) was added in the lower row (to a final concentration of 1 μM; non-specific series). Each of the test radioligands, [^67Ga]Ga/[^111In]In/[^177Lu]Lu-GAS1/3 and [^67Ga]Ga/[^111In]In-GAS2, was finally added (250 fmol total conjugates in 150 μL 0.5% BSA-PBS) in all the wells and the plates were incubated at for 1 h at 37 °C in an Incubator-Orbital Shaker unit (MPM Instr. SrI, Bernareggio, MI, Italy); [^111In]In-GAS1/2/3 were incubated for 15 min, 30 min, 1 h and 2 h. At the predetermined time points, the plates were placed on ice, the medium was collected, and the plates were rinsed with 0.5% BSA-PBS (1 mL). Cells were subsequently treated with an acid-wash solution (2 × 600 µL; 50 mM glycine buffer pH 2.8, 0.1 M NaCl) and the fractions collected (membrane-bound). After briefly washing with 0.5% BSA-PBS (1 mL), the cells were lysed with 1 N NaOH (2 × 600 µL), and the fractions were collected (internalized). The radioactivity content of collected fractions was counted in the gamma counter, and the percentage of internalized and membrane-bound fractions per time point were calculated with Microsoft Excel. Specific internalized and membrane-bound counts were determined by subtracting the respective non-specific (in the presence of 1 μM DG2) from the respective total counts. Results represent specific internalized/membrane bound ± SD of total added radioactivity per well from three experiments performed in triplicate.

[1] = test system: SCID mice bearing twin HEK293-CCK2i4svR and wtHEK293 tumors; test: Biodistribution in SCID mice bearing twin HEK293-CCK2i4svR and wtHEK293 xenografts; assay type: in vivo
Outline: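 Uptake is expressed as %IA/g (mean ± SD, n = 4) from gamma counting of blood, organs and tumours collected at set times: 1, 4 and 24 h pi for ^67Ga, 4 and 24 h for ^111In (±gelofusine), 4–96 h for ^177Lu. Radioligands were given iv at 7–40 pmol to SCID mice bearing twin CCK2i4svR-transfected and wild-type HEK293 xenografts.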

[2] = test system: HEK293-CCK2i4svR and wtHEK293 xenografts; test: SPECT/CT of HEK293-CCK2i4svR and wtHEK293 xenografts; assay type: in vivo, mice; settings: 4 h and 24 h pi
Description: For SPECT/CT imaging, six mice bearing twin HEK293-CCK2i4svR and wtHEK293 tumors were injected in the tail vein with a bolus containing [^111In]In-GAS1/2/3 (100 μL, 9–12 MBq associated with 3 nmol total injected analog in-vehicle: saline/EtOH 9/1 v/v). Mice were euthanized at 4 h and 24 h pi. Tomographic SPECT/CT imaging was performed with the y-CUBE/x-CUBE systems (Molecubes, Belgium). The SPECT system is based on monolithic NaI detectors attached to SiPMs, with a 0.6 mm intrinsic resolution. The CT system is based on a structured CMOS detector of CsI with pixels of 75 µm and operates between 35–80 kVp, 10–500 µA tube current, with a 33 µm fixed focal spot size. SPECT scans were acquired 4 h pi and 24 h pi, with a 40–50 min duration protocol based on the injected activity, and each SPECT scan was succeeded by a CT scan, following General-Purpose protocol under 50 kVp, for co-registration purposes. SPECT images were reconstructed using the MLEM reconstruction method with a 250 µm voxel size and 500 iterations. CT images were reconstructed using the ISRA reconstruction method with a 100 µm voxel size.
Images were exported and post-processed on VivoQuant software, version 4.0 (Invicro, Boston). A smoothing median filter (0.6 mm, spherical window) was applied to the images, and the bladder was removed for consistency purposes. Normalization of images was performed (i.e., all images having the same color scale range values) to achieve a direct visual comparison between the different groups.

Biodistribution, Blood ([1]; 4 h pi): 2.42 ± 0.94 %IA/g
Biodistribution, CCK2i4svR(+) Tumor ([1]; 4 h pi): 19.83 ± 1.35 %IA/g
Biodistribution, CCK2i4svR(-) Tumor ([1]; 4 h pi): 0.85 ± 0.37 %IA/g
Biodistribution, Femur ([1]; 4 h pi): 0.60 ± 0.14 %IA/g
Biodistribution, Heart ([1]; 4 h pi): 0.81 ± 0.28 %IA/g
Biodistribution, Intestines ([1]; 4 h pi): 1.66 ± 0.33 %IA/g
Biodistribution, Kidneys ([1]; 4 h pi): 9.32 ± 0.68 %IA/g
Biodistribution, Liver ([1]; 4 h pi): 2.78 ± 0.27 %IA/g
Biodistribution, Lungs ([1]; 4 h pi): 1.36 ± 0.37 %IA/g
Biodistribution, Muscle ([1]; 4 h pi): 0.31 ± 0.13 %IA/g
Biodistribution, Pancreas ([1]; 4 h pi): 0.86 ± 0.23 %IA/g
Biodistribution, Spleen ([1]; 4 h pi): 0.69 ± 0.12 %IA/g
Biodistribution, Stomach ([1]; 4 h pi): 0.91 ± 0.39 %IA/g
Biodistribution, Blood ([1]; 24 h pi): 0.08 ± 0.01 %IA/g
Biodistribution, CCK2i4svR(+) Tumor ([1]; 24 h pi): 11.53 ± 1.93 %IA/g
Biodistribution, CCK2i4svR(-) Tumor ([1]; 24 h pi): 0.40 ± 0.21 %IA/g
Biodistribution, Femur ([1]; 24 h pi): 0.27 ± 0.09 %IA/g
Biodistribution, Heart ([1]; 24 h pi): 0.16 ± 0.02 %IA/g
Biodistribution, Intestines ([1]; 24 h pi): 0.48 ± 0.14 %IA/g
Biodistribution, Kidneys ([1]; 24 h pi): 4.15 ± 1.06 %IA/g
Biodistribution, Liver ([1]; 24 h pi): 1.07 ± 0.26 %IA/g
Biodistribution, Muscle ([1]; 24 h pi): 0.08 ± 0.01 %IA/g
Biodistribution, Pancreas ([1]; 24 h pi): 0.17 ± 0.04 %IA/g
Biodistribution, Spleen ([1]; 24 h pi): 0.43 ± 0.09 %IA/g
Biodistribution, Stomach ([1]; 24 h pi): 0.35 ± 0.21 %IA/g
Background clearance / excretion route ([1]; mouse, in vivo): predominantly cleared via the kidneys
SPECT/CT uptake in CCK2i4svR expressing tumors [2]: Intense uptake
SPECT/CT uptake in wtHEK293 tumors devoid of CCK2i4svR expression [2]: no uptake is evident
SMILES: CC(C)(C)C(=O)CN1C(=O)[C@H](NC(=O)Nc2cccc(C(=O)NCCOCCOCCOCCNC(=O)[C@@H](CCC(=O)O)NC(=O)CCC(C(=O)O)N3CCN(CC(=O)[O-])CCN(CC(=O)[O-])CCN(CC(=O)[O-])CC3)c2)CN(C2CCCCC2)c2ccccc21.[111In+3] (stereo partly shown) [[^111In]In-GAS3]
Internalized to membrane-bound ratio (HEK293-CCK2i4svR cells): 4.1
Internalized fraction (HEK293-CCK2i4svR cells; 1 h 37 °C, specific): 11.12 ± 0.79 % of total added activity
Cell uptake (internalized + membrane-bound) (HEK293-CCK2i4svR cells; 1 h 37 °C, specific, of total added activity): 13.81 ± 0.89%

Source: article PMC8954547, “Nonpeptidic Z360-Analogs Tagged with Trivalent Radiometals as Anti-CCK2R Cancer Theranostic Agents: A Preclinical Study” (Pharmaceutics, 2022)
